Laboratory results from PMC10054465, “Design, Synthesis, and Antiviral Activities of New Benzotriazole-Based Derivatives” (Pharmaceuticals, 2023).

Test system: CVB5
Assay: microbe, parasite or virus in culture
Format: cell-based, human enterovirus B (coxsackievirus B5)
Settings: not given

Structure (SMILES) | antiviral activity (in words)
CC(=O)Nc1cccc(Cn2nnc3cc(Cl)c(Cl)cc32)c1 [35a] | no antiviral activity
CCC(=O)Nc1cccc(Cn2nnc3cc(Cl)c(Cl)cc32)c1 [36a] | no antiviral activity

Same assay, conditions: Enterovirus B, CVB5, Vero 76, read-out: CVB5 EC50

Structure (SMILES) | EC50
Nc1ccc(Cn2nnc3c(F)cccc32)cc1 [12e] | 100 µM
Cc1cc2nnn(Cc3ccc(N)cc3)c2cc1C [12b] | 100 µM
Cc1cc(CCCOc2c(C)cc(-c3noc(C(F)(F)F)n3)cc2C)on1 [Plec, pleconaril, reference compound] | 0.005 ± 0.002 µM

Test system: not given
Assay: not given
Settings: not given

Structure (SMILES) | melting point
CC(=O)Nc1ccc(Cn2nnc3cc(F)c(F)cc32)cc1 | 242 to 243 °C
COc1ccc(C(=O)Nc2ccc(Cn3nnc4cc(C)c(C)cc43)cc2)cc1 | 196 to 198 °C
CC(=O)Nc1cccc(Cn2nc3cc(C)c(C)cc3n2)c1 | 184 to 187 °C
Cc1cc2nn(Cc3cccc(NC(=O)NC4CCCC4)c3)nc2cc1C | 298 to 299 °C
Cc1cc2nnn(Cc3cccc(NC(=O)c4ccc(F)cc4)c3)c2cc1C | 143 to 147 °C
Cc1cc2nnn(Cc3cccc(NC(=O)c4ccc(Cl)cc4)c3)c2cc1C [53b] | 227 to 229 °C
O=C(Nc1ccc(Cn2nnc3cc(Cl)c(Cl)cc32)cc1)NC1CCCCC1 | 130 to 132 °C
CCC(=O)Nc1ccc(Cn2nnc3ccccc32)cc1 | 192 to 195 °C
CCNC(=O)Nc1cccc(Cn2nnc3cc(C)c(C)cc32)c1 | 271 to 273 °C
O=C(Nc1cccc(Cn2nnc3cc(Cl)c(Cl)cc32)c1)c1ccc(C(F)(F)F)cc1 | 211 to 213 °C
CCNC(=O)Nc1cccc(Cn2nc3cc(C)c(C)cc3n2)c1 | 218 to 219 °C
COc1cc(C(=O)Nc2ccc(Cn3nnc4ccccc43)cc2)cc(OC)c1OC | 147 to 149 °C
O=C(Nc1cccc(Cn2nnc3cc(Cl)c(Cl)cc32)c1)c1ccc(F)cc1 | 184 to 186 °C
Cc1cc2nn(Cc3cccc(NC(=O)c4ccc(Br)cc4)c3)nc2cc1C | 267 to 268 °C
O=C(Nc1ccc(Cn2nnc3cc(F)c(F)cc32)cc1)c1ccc(F)cc1 | 241 to 242 °C
O=C(Nc1ccc(Cn2nnc3cc(F)c(F)cc32)cc1)c1ccc(Br)cc1 | 235 to 236 °C
CCCNC(=O)Nc1cccc(Cn2nnc3cc(C)c(C)cc32)c1 | 189 to 191 °C
Cc1cc2nn(Cc3cccc(NC(=O)c4ccc([N+](=O)[O-])cc4)c3)nc2cc1C | 184 to 187 °C
CCC(=O)Nc1cccc(Cn2nnc3cc(Cl)c(Cl)cc32)c1 [36a] | 145 to 146 °C
COc1ccc(NC(=O)Nc2cccc(Cn3nnc4cc(C)c(C)cc43)c2)cc1 | 233 to 235 °C
COc1cc(NC(=O)Nc2cccc(Cn3nnc4cc(C)c(C)cc43)c2)cc(OC)c1OC | 206 to 208 °C
COc1ccc(C(=O)Nc2ccc(Cn3nnc4ccccc43)cc2)cc1 [86c] | 172 to 174 °C
CCCNC(=O)Nc1ccc(Cn2nnc3cc(Cl)c(Cl)cc32)cc1 | 213 to 214 °C
CCC(=O)Nc1ccc(Cn2nnc3c(F)cccc32)cc1 | 244 to 246 °C
O=C(Nc1ccc(Cn2nnc3cc(F)c(F)cc32)cc1)NC1CCCCC1 | 203 to 204 °C
COc1ccc(C(=O)Nc2cccc(Cn3nnc4cc(C)c(C)cc43)c2)cc1 | 203 to 206 °C

Structure (SMILES) | melting point
O=C(Nc1ccc(Cn2nnc3ccccc32)cc1)c1ccc([N+](=O)[O-])cc1 | 245 to 246 °C
CCCNC(=O)Nc1cccc(Cn2nnc3cc(Cl)c(Cl)cc32)c1 | > 300 °C
N#Cc1ccc(C(=O)Nc2cccc(Cn3nnc4cc(Cl)c(Cl)cc43)c2)cc1 | 167 to 169 °C
O=C(Nc1cccc(Cn2nnc3cc(Cl)c(Cl)cc32)c1)NC1CCCC1 | 231 to 232 °C
Cc1ccc(C(=O)Nc2cccc(Cn3nnc4cc(C)c(C)cc43)c2)cc1 | 211 to 212 °C
Cc1cc2nnn(Cc3cccc(NC(=O)NC(C)(C)C)c3)c2cc1C | 189 to 191 °C
O=C(Nc1ccc(Cn2nnc3c(F)cccc32)cc1)c1ccccc1 | 214 to 217 °C
COc1cc(C(=O)Nc2cccc(Cn3nnc4cc(C)c(C)cc43)c2)cc(OC)c1OC [51b] | 160 to 162 °C
CCCNC(=O)Nc1cccc(Cn2nc3cc(C)c(C)cc3n2)c1 | 204 to 206 °C
Cc1cc2nnn(Cc3cccc(NC(=O)NC4CCCCC4)c3)c2cc1C | 233 to 235 °C
O=C(Nc1ccc(Cn2nnc3ccccc32)cc1)NC1CCCCC1 | 141 to 143 °C
Nc1ccc(Cn2nnc3c(F)cccc32)cc1 [12e] | 164 to 167 °C
CCCCNC(=O)Nc1ccc(Cn2nnc3cc(F)c(F)cc32)cc1 | 193 to 194 °C
Cc1cc2nnn(Cc3cccc(NC(=O)c4ccc(C(F)(F)F)cc4)c3)c2cc1C | 201 to 203 °C
CCCCNC(=O)Nc1ccc(Cn2nnc3cc(Cl)c(Cl)cc32)cc1 | 216 to 217 °C
CCCCNC(=O)Nc1cccc(Cn2nnc3cc(Cl)c(Cl)cc32)c1 | 232 to 233 °C
CCC(=O)Nc1cccc(Cn2nnc3cc(C)c(C)cc32)c1 | 155 to 157 °C
CCC(=O)Nc1cccc(Cn2nc3cc(C)c(C)cc3n2)c1 | 178 to 182 °C
Cc1cc2nnn(Cc3cccc(NC(=O)Nc4ccc(Cl)cc4)c3)c2cc1C | 249 to 251 °C
CCC(C)NC(=O)Nc1cccc(Cn2nnc3cc(C)c(C)cc32)c1 (stereo not shown) | 202 to 204 °C
O=C(Nc1ccccc1)Nc1ccc(Cn2nnc3ccccc32)cc1 | 159 to 161 °C
O=C(Nc1ccc(Cn2nnc3ccccc32)cc1)c1ccc(OC(F)(F)F)cc1 | 229 to 231 °C
CCNC(=O)Nc1cccc(Cn2nnc3cc(Cl)c(Cl)cc32)c1 | 244 to 245 °C
Cc1ccc(C(=O)Nc2cccc(Cn3nnc4cc(Cl)c(Cl)cc43)c2)cc1 | 199 to 200 °C
Cc1cc2nnn(Cc3cccc(NC(=O)c4ccc([N+](=O)[O-])cc4)c3)c2cc1C | 227 to 230 °C
Cc1cc2nnn(Cc3cccc(NC(=O)c4ccc(Br)cc4)c3)c2cc1C | 237 to 238 °C

Structure (SMILES) | melting point
Nc1ccc(C(=O)Nc2cccc(Cn3nnc4cc(Cl)c(Cl)cc43)c2)cc1 | 101 to 102 °C
CCCC(=O)Nc1ccc(Cn2nnc3c(F)cccc32)cc1 | 215 to 216 °C
O=C(Nc1ccc(Cn2nnc3cc(F)c(F)cc32)cc1)c1ccc(Cl)cc1 | 263 to 264 °C
Cc1cc2nnn(Cc3ccc(N)cc3)c2cc1C [12b] | 184 to 186 °C
COc1ccc(C(=O)Nc2cccc(Cn3nnc4cc(Cl)c(Cl)cc43)c2)cc1 | 221 to 223 °C
CCNC(=O)Nc1ccc(Cn2nnc3cc(Cl)c(Cl)cc32)cc1 | 211 to 212 °C
Cc1cc2nnn(Cc3ccc(NC(=O)c4ccc([N+](=O)[O-])cc4)cc3)c2cc1C | 192 to 194 °C
Cc1ccc(C(=O)Nc2ccc(Cn3nnc4cc(F)c(F)cc43)cc2)cc1 | 297 to 299 °C
CCCCNC(=O)Nc1cccc(Cn2nnc3cc(C)c(C)cc32)c1 | 195 to 197 °C
CCNC(=O)Nc1ccc(Cn2nnc3cc(F)c(F)cc32)cc1 | 286 to 287 °C
CCCNC(=O)Nc1ccc(Cn2nnc3ccccc32)cc1 | 165 to 167 °C
Cc1cc2nnn(Cc3cccc(NC(=O)c4ccc(C#N)cc4)c3)c2cc1C | 242 to 247 °C
COc1ccc(C(=O)Nc2ccc(Cn3nnc4c(F)cccc43)cc2)cc1 | 266 to 268 °C
Cc1cc2nn(Cc3cccc(NC(=O)c4ccc(Cl)cc4)c3)nc2cc1C | 246 to 247 °C
O=C(Nc1ccc(Cn2nnc3c(F)cccc32)cc1)c1ccc([N+](=O)[O-])cc1 | 272 to 274 °C
O=C(Nc1ccc(Cn2nnc3cc(F)c(F)cc32)cc1)c1ccc([N+](=O)[O-])cc1 | 240 to 242 °C
CC(=O)Nc1cccc(Cn2nnc3cc(C)c(C)cc32)c1 | 198 to 200 °C
Cc1cc2nn(Cc3cccc(NC(=O)NC4CCCCC4)c3)nc2cc1C | 299 to 300 °C
Cc1cc2nnn(Cc3cccc(NC(=O)Nc4ccc(F)cc4)c3)c2cc1C | 245 to 247 °C
O=C(Nc1cccc(Cn2nnc3cc(Cl)c(Cl)cc32)c1)c1ccc([N+](=O)[O-])cc1 | 217 to 218 °C
CCCNC(=O)Nc1ccc(Cn2nnc3cc(F)c(F)cc32)cc1 | 286 to 287 °C
CC(=O)Nc1ccc(Cn2nnc3c(F)cccc32)cc1 | 233 to 234 °C
CCC(=O)Nc1ccc(Cn2nnc3cc(F)c(F)cc32)cc1 | 240 to 242 °C
Cc1cc2nnn(Cc3cccc(NC(=O)NC4CCCC4)c3)c2cc1C | 290 to 292 °C

Test system: not listed separately
Assay: Cytotoxicity in mock-infected Vero-76 monolayers
Settings: African green monkey (Cercopithecus aethiops), Vero-76 cell monolayers, mock-infected

Structure (SMILES) | CC50
Nc1nc2c(ncn2COCCO)c(=O)[nH]1 [ACG, acycloguanosine, reference compound] | > 100 µM
COc1ccc(C(=O)Nc2ccc(Cn3nnc4ccccc43)cc2)cc1 [86c] | 85 µM
Cc1cc(CCCOc2c(C)cc(-c3noc(C(F)(F)F)n3)cc2C)on1 [Plec, pleconaril, reference compound] | 77 ± 6.8 µM

Test system: BVDV
Assay: microbe, parasite or virus in culture
Format: cell-based
Settings: Bovine viral diarrhea virus isolates and strains, MDBK, read-out: BVDV EC50

Structure (SMILES) | EC50
NC(=O)c1ncn([C@@H]2O[C@H](CO)[C@@H](O)[C@H]2O)n1 [Ribav, ribavirin, reference compound] | 12 µM
COc1ccc(C(=O)Nc2ccc(Cn3nnc4ccccc43)cc2)cc1 [86c] | 3 µM
C[C@@]1(O)[C@H](O)[C@@H](CO)O[C@H]1n1cnc2c(=O)[nH]c(N)nc21 [NM108, 2′-C-methyl-guanosine, reference compound] | 1.5 µM

Same assay, conditions: Bovine viral diarrhea virus isolates and strains, MDBK, read-out: BVDV EC50, second value after slash

Structure (SMILES) | EC50
NC(=O)c1ncn([C@@H]2O[C@H](CO)[C@@H](O)[C@H]2O)n1 [Ribav, ribavirin, reference compound] | 18 µM

Test system: not listed separately
Assay: Cytotoxicity in mock-infected BHK-21 monolayers (MTT)
Settings: Syrian hamster (Mesocricetus auratus), BHK-21 cell monolayers, mock-infected

Structure (SMILES) | CC50
COc1ccc(C(=O)Nc2ccc(Cn3nnc4ccccc43)cc2)cc1 [86c] | 95 µM
C[C@@]1(O)[C@H](O)[C@@H](CO)O[C@H]1n1cnc2c(=O)[nH]c(N)nc21 [NM108, 2′-C-methyl-guanosine, reference compound] | > 100 µM

Test system: HSV-1
Assay: microbe, parasite or virus in culture
Format: cell-based, human herpesvirus 1
Settings: Human alphaherpesvirus 1, Vero 76, read-out: HSV-1 EC50

Structure (SMILES) | EC50
Nc1nc2c(ncn2COCCO)c(=O)[nH]1 [ACG, acycloguanosine, reference compound] | 2.4 ± 0.6 µM

Test system: Sb-1
Assay: microbe, parasite or virus in culture
Format: cell-based, human enterovirus C (poliovirus type-1)
Settings: Enterovirus C, Vero 76, read-out: Sb-1 EC50

Structure (SMILES) | EC50
Cc1cc(CCCOc2c(C)cc(-c3noc(C(F)(F)F)n3)cc2C)on1 [Plec, pleconaril, reference compound] | 2 ± 0.62 µM

Test system: YFV
Assay: microbe, parasite or virus in culture
Format: cell-based
Settings: Yellow fever virus, BHK-21, read-out: YFV EC50

Structure (SMILES) | EC50
C[C@@]1(O)[C@H](O)[C@@H](CO)O[C@H]1n1cnc2c(=O)[nH]c(N)nc21 [NM108, 2′-C-methyl-guanosine, reference compound] | 1 µM

Test system: not listed separately
Assay: Cytotoxicity in mock-infected MDBK cells (MTT)
Settings: cattle (Bos taurus)

Structure (SMILES) | CC50
NC(=O)c1ncn([C@@H]2O[C@H](CO)[C@@H](O)[C@H]2O)n1 [Ribav, ribavirin, reference compound] | 52 µM

Same assay, conditions: cattle (Bos taurus), mock-infected

Structure (SMILES) | CC50
NC(=O)c1ncn([C@@H]2O[C@H](CO)[C@@H](O)[C@H]2O)n1 [Ribav, ribavirin, reference compound] | 35 µM
COc1ccc(C(=O)Nc2ccc(Cn3nnc4ccccc43)cc2)cc1 [86c] | 87 µM
C[C@@]1(O)[C@H](O)[C@@H](CO)O[C@H]1n1cnc2c(=O)[nH]c(N)nc21 [NM108, 2′-C-methyl-guanosine, reference compound] | > 100 µM
